Assay results published in patent publication US20080207677A1, “Napthyridine Compounds As Rock Inhibitors” (GPC BIOTECH AG, priority 2004, published 2008).

How the values were obtained:
[1] = target: T1, recombinant human ROCK2 (amino acids 1-530, aminoterminal 6×His tag) (Homo sapiens, UniProt O75116); assay: Determination of ROCK kinase activity, IMAP assay, ROCK2 human; format: biochemical; conditions: for IC50: in vitro kinase assay, ATP 34.8 μM; for inhibition at 10 µM: % inhibition of the protein kinase ROCK2 at a concentration of 10 μM
T1 construct: recombinant human ROCK2 (amino acids 1-530, aminoterminal 6×His tag); 6xHis (N)
T1 sequence (O75116 1-530): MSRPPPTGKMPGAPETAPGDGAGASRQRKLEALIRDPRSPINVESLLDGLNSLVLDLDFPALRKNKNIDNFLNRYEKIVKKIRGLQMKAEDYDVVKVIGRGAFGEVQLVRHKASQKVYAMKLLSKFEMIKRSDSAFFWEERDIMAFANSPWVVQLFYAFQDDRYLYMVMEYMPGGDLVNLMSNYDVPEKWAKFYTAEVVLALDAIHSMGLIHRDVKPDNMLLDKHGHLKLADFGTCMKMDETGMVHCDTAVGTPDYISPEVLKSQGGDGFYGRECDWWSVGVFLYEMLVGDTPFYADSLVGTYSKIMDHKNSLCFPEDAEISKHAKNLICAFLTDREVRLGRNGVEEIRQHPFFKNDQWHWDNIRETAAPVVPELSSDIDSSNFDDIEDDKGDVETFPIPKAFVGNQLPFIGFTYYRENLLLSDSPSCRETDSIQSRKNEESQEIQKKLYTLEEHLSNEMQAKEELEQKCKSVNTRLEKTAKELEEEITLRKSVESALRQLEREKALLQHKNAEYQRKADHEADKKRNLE
Method: (§1) Determination of ROCK Kinase Activity
(§2) IC50 values for the various compounds were determined with recombinant human ROCK1 (amino acids 1-555, aminoterminal 6×His tag) and recombinant human ROCK2 (amino acids 1-530, aminoterminal 6×His tag) under the following reaction conditions:
• 11) Add 6 μl 8/6 fold concentrated Substrate+8/6 fold concentrated ATP in 1 fold concentrated Reaction Buffer to each well of Assay Plate • 12) Add 10.8 nl 740 fold concentrated Inhibitor in 100% DMSO to each well except to C− and C+ wells using pintool • 13) Add 10.8 nl 100% DMSO to C− and C+ wells using pintool • 14) Add 2 μl Reaction Buffer to C− wells • 15) Add 2 μl 4 fold concentrated Kinase in Reaction Buffer to each well except C− wells • 16) Incubate according to Reaction Time at room temperature • 17) Add 15 μl IMAP Binding Solution to each well • 18) Incubate according to IMAP Incubation Time at room temperature • 19) Measure Fluorescence Polarization • 20) Measure Fluorescence Intensity

[2] = target: T2, recombinant human ROCK1 (amino acids 1-555, aminoterminal 6×His tag) (Homo sapiens, UniProt Q13464); assay: Determination of ROCK kinase activity, IMAP assay, ROCK1 human; format: biochemical; conditions: in vitro kinase assay, ATP 38.9 μM
T2 construct: recombinant human ROCK1 (amino acids 1-555, aminoterminal 6×His tag); 6xHis (N)
T2 sequence (Q13464 1-555): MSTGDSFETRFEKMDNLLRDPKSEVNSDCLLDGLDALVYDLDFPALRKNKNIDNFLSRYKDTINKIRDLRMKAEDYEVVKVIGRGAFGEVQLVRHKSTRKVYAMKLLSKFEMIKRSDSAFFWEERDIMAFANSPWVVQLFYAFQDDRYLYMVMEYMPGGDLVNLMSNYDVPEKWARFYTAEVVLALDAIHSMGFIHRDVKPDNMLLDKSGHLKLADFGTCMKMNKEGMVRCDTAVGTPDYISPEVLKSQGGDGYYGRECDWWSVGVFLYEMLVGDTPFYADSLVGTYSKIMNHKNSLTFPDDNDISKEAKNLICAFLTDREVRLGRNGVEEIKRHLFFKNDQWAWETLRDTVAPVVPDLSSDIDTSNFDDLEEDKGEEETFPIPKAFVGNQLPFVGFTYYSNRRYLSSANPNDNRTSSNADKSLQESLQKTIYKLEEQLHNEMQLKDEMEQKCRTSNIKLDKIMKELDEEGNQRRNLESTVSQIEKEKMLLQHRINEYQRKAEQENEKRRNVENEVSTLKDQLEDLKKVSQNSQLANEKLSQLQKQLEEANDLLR
Method: as §1, §2
• 1) Add 6 μl 8/6 fold concentrated Substrate+8/6 fold concentrated ATP in 1 fold concentrated Reaction Buffer to each well of Assay Plate • 2) Add 10.8 nl 740 fold concentrated Inhibitor in 100% DMSO to each well except to C− and C+ wells using pintool • 3) Add 10.8 nl 100% DMSO to C− and C+ wells using pintool • 4) Add 2 μl Reaction Buffer to C− wells • 5) Add 2 μl 4 fold concentrated Kinase in Reaction Buffer to each well except C− wells • 6) Incubate according to Reaction Time at room temperature • 7) Add 15 μl IMAP Binding Solution to each well • 8) Incubate according to IMAP Incubation Time at room temperature • 9) Measure Fluorescence Polarization • 10) Measure Fluorescence Intensity

Structure (SMILES) | IC50 [1] [nM] | IC50 [2] [nM] | inhibition at 10 µM [1] [%]
C[C@@H](NC(=O)c1ccc2cnccc2n1)c1ccc(Cl)cc1 [(R)-[1,6]Naphthyridine-2-carboxylic acid 1-(4-chloro-phenyl)-ethylamide] | 360 |  | 
Cc1ccc([C@@H](C)NC(=O)c2ccc3cnccc3n2)cc1 [(R)-[1,6]Naphthyridine-2-carboxylic acid 1-(4-methylphenyl)-ethylamide] | 410 |  | 
C[C@@H](NC(=O)c1ccc2cnccc2n1)c1ccc2ccccc2c1 [(R)-[1,6]Naphthyridine-2-carboxylic acid 1-(naphth-2-yl)-ethylamide] | 880 | 2320 | 
CC[C@@H](NC(=O)c1ccc2cnccc2n1)c1ccccc1 [(R)-[1,6]Naphthyridine-2-carboxylic acid 1-phenyl-propylamide] | 160 |  | 
NC(=O)[C@H](Cc1ccccc1)NC(=O)c1ccc2cnccc2n1 [(S)-[1,6]Naphthyridine-2-carboxylic acid (1-carbamoyl-2-phenyl-ethyl)-amide] | 5640 | 8160 | 
NC(=O)[C@H](Cc1ccc(O)cc1)NC(=O)c1ccc2cnccc2n1 [(S)-[1,6]Naphthyridine-2-carboxylic acid [1-carbamoyl-2-(4-hydroxy-phenyl)-ethyl]-amide] | 4260 | 6830 | 
O=C(NCc1cccc(Br)c1)c1ccc2cnccc2n1 [Compound 1, [1,6]Naphthyridine-2-carboxylic acid 3-bromo-benzylamide] | 1040 | 910 | 87
O=C(NCc1ccccc1F)c1ccc2cnccc2n1 [Compound 2, [1,6]Naphthyridine-2-carboxylic acid 2-fluoro-benzylamide] | 2080 | 790 | 
O=C(NCc1ccc(Br)cc1)c1ccc2cnccc2n1 [Compound 3, [1,6]Naphthyridine-2-carboxylic acid 4-bromo-benzylamide] | 1330 | 1370 | 
CC(NC(=O)c1ccc2cnccc2n1)c1ccccc1 (stereo not drawn) [Compound 4, [1,6]Naphthyridine-2-carboxylic acid (1-phenyl-ethyl)-amide] | 1590 | 710 | 81
NC(=O)C(Cc1ccccc1)NC(=O)c1ccc2cnccc2n1 (stereo not drawn) [Compound 5, [1,6]Naphthyridine-2-carboxylic acid (1-carbamoyl-2-phenyl-ethyl)-amide] |  |  | 62
NC(=O)C(Cc1ccc(Cl)cc1)NC(=O)c1ccc2cnccc2n1 (stereo not drawn) [Compound 6, [1,6]Naphthyridine-2-carboxylic acid [1-carbamoyl-2-(4-chloro-phenyl)-ethyl]-amide] |  |  | 65
C[C@@H](NC(=O)c1ccc2cnccc2n1)c1ccccc1 [Compound 7, [1,6]Naphthyridine-2-carboxylic acid ((R)-1-phenyl-ethyl)-amide] | 920 | 1130 | 88
C[C@H](NC(=O)c1ccc2cnccc2n1)c1ccccc1 [Compound 8, [1,6]Naphthyridine-2-carboxylic acid ((S)-1-phenyl-ethyl)-amide] |  |  | 37
CCC(NC(=O)c1ccc2cnccc2n1)c1cccc(Cl)c1 (stereo not drawn) [[1,6]Naphthyridine-2-carboxylic acid 1-(3-chlorophenyl)-propylamide] | 380 | 300 | 
CC(NC(=O)c1ccc2cnccc2n1)c1ccc(Br)cc1 (stereo not drawn) [[1,6]Naphthyridine-2-carboxylic acid 1-(4-bromo-phenyl)-ethylamide] | 890 | 970 | 
CC(NC(=O)c1ccc2cnccc2n1)c1ccc(Cl)cc1 (stereo not drawn) [[1,6]Naphthyridine-2-carboxylic acid 1-(4-chlorophenyl)-ethylamide] | 770 | 1100 | 
CCC(NC(=O)c1ccc2cnccc2n1)c1ccc(Cl)cc1 (stereo not drawn) [[1,6]Naphthyridine-2-carboxylic acid 1-(4-chlorophenyl)-propylamide] | 480 | 1260 | 
CC(NC(=O)c1ccc2cnccc2n1)c1ccc(F)cc1 (stereo not drawn) [[1,6]Naphthyridine-2-carboxylic acid 1-(4-fluorophenyl)-ethylamide] | 340 | 940 | 

Structure (SMILES) | IC50 [1] [nM] | IC50 [2] [nM] | inhibition at 10 µM [1] [%]
COc1ccc(C(C)NC(=O)c2ccc3cnccc3n2)cc1 (stereo not drawn) [[1,6]Naphthyridine-2-carboxylic acid 1-(4-methoxyphenyl)-ethylamide] | 10700 |  | 
Cc1ccc(C(C)NC(=O)c2ccc3cnccc3n2)cc1 (stereo not drawn) [[1,6]Naphthyridine-2-carboxylic acid 1-(4-methylphenyl)-ethylamide] | 1410 | 1290 | 
CCC(NC(=O)c1ccc2cnccc2n1)c1ccc(C)cc1 (stereo not drawn) [[1,6]Naphthyridine-2-carboxylic acid 1-(4-methylphenyl)-propylamide] | 1260 | 790 | 
CCC(NC(=O)c1ccc2cnccc2n1)c1cccs1 (stereo not drawn) [[1,6]Naphthyridine-2-carboxylic acid 1-(thiophen-2-yl)-propylamide] | 1010 |  | 
CC(NC(=O)c1ccc2cnccc2n1)c1ccsc1 (stereo not drawn) [[1,6]Naphthyridine-2-carboxylic acid 1-(thiophen-3-yl)-ethylamide] | 1910 |  | 
CCC(NC(=O)c1ccc2cnccc2n1)c1ccccc1 (stereo not drawn) [[1,6]Naphthyridine-2-carboxylic acid 1-phenyl-propylamide] | 500 | 660 | 
O=C(NCCc1ccc(Br)cc1)c1ccc2cnccc2n1 [[1,6]Naphthyridine-2-carboxylic acid 2-(4-bromo-phenyl)-ethylamide] | 1520 | 1500 | 
O=C(NCCc1ccc(Cl)cc1)c1ccc2cnccc2n1 [[1,6]Naphthyridine-2-carboxylic acid 2-(4-chloro-phenyl)-ethylamide] | 5700 | 1910 | 
O=C(NCc1ccccc1Br)c1ccc2cnccc2n1 [[1,6]Naphthyridine-2-carboxylic acid 2-bromo-benzylamide] | 7230 | 2240 | 
O=C(NCc1ccccc1Cl)c1ccc2cnccc2n1 [[1,6]Naphthyridine-2-carboxylic acid 2-chloro-benzylamide] | 3830 | 4770 | 
CCOc1ccccc1CNC(=O)c1ccc2cnccc2n1 [[1,6]Naphthyridine-2-carboxylic acid 2-ethoxy-benzylamide] | 13000 |  | 
O=C(NCc1cccc(Cl)c1)c1ccc2cnccc2n1 [[1,6]Naphthyridine-2-carboxylic acid 3-chloro-benzylamide] | 2570 | 610 | 
COc1cccc(CNC(=O)c2ccc3cnccc3n2)c1 [[1,6]Naphthyridine-2-carboxylic acid 3-methoxy-benzylamide] | 3100 | 3340 | 
O=C(NCc1ccc(Cl)cc1)c1ccc2cnccc2n1 [[1,6]Naphthyridine-2-carboxylic acid 4-chloro-benzylamide] | 2110 | 2050 | 
COc1ccc(CNC(=O)c2ccc3cnccc3n2)cc1 [[1,6]Naphthyridine-2-carboxylic acid 4-methoxy-benzylamide] | 5120 | 6040 | 
Cc1ccc(CNC(=O)c2ccc3cnccc3n2)cc1 [[1,6]Naphthyridine-2-carboxylic acid 4-methyl-benzylamide] | 2230 | 1280 | 
O=C(NCc1ccc2c(c1)OCO2)c1ccc2cnccc2n1 [[1,6]Naphthyridine-2-carboxylic acid (benzo[1,3]dioxol-5-ylmethyl)-amide] | 1870 | 1460 | 
O=C(NCc1ccccc1)c1ccc2cnccc2n1 [[1,6]Naphthyridine-2-carboxylic acid benzylamide] | 7680 | 3150 | 
O=C(NCc1cccs1)c1ccc2cnccc2n1 [[1,6]Naphthyridine-2-carboxylic acid thiophen-2-yl-methylamide] | 7840 | 1970 | 
